# Test results: ChEMBL document CHEMBL1146224, “Design, synthesis, and characterization of novel iron chelators: structure-activity relationships of the 2-benzoylpyridine thiosemicarbazone series and their 3-nitrobenzoyl analogues as potent antitumor agents” (J Med Chem, 2007)
# Experiments:
# MRC5 = experiment: Antiproliferative activity against human MRC5 cells after 72 hrs by MTT assay; assay type: cell-based; conditions: MRC5, 72 h
# [1] = Partition coefficient, log P of the compound; assay type: physicochemical; conditions: octanol/water
# SK-N-MC [2] = experiment: cells; conditions: Homo sapiens, 72 h
# Description: Antiproliferative activity against human SK-N-MC cells after 72 hrs by MTT assay
# SK-N-MC [3] = experiment: Effect on iron release in SK-N-MC cells; assay type: functional, Homo sapiens
# SK-N-MC [4] = experiment: Inhibition of iron uptake from transferrin in SK-N-MC cells at 50 uM relative to control; assay type: functional, Homo sapiens; design: scale not given: the % may be the effect or the level left
logP [1],IC50 (SK-N-MC [2]) [nM],Structure (SMILES),IC50 (MRC5) [nM],Activity (SK-N-MC [3]) [%],Activity (SK-N-MC [4]) [%]
4.01,2,CCNC(=S)N/N=C(\c1ccccc1)c1ccccn1,> 6250,–,–
2.53,14,CCNC(=S)N/N=C(\c1cccc([N+](=O)[O-])c1)c1ccccn1,2310,–,–
–,4510,CC(=O)N(O)CCCCCNC(=O)CCC(=O)N(O)CCCCCNC(=O)CCC(=O)N(O)CCCCCN [DEFEROXAMINE],–,7,–
1.92,4660,NC(=S)N/N=C(\c1ccccc1)c1ccccn1,–,23,–
1.7,13,C=CCNC(=S)N/N=C(\c1cccc([N+](=O)[O-])c1)c1ccccn1,2390,–,11
–,–,Cc1ncc(CO)c(/C=N/NC(=O)c2ccncc2)c1O [PYRIDOXAL ISONICOTINOYL HYDRAZONE],–,–,21
2.69,4,C=CCNC(=S)N/N=C(\c1ccccc1)c1ccccn1,> 6250,–,–
2.14,130,CNC(=S)N/N=C(\c1cccc([N+](=O)[O-])c1)c1ccccn1,–,–,8
1.29,4,CN(C)C(=S)N/N=C(\c1ccccc1)c1ccccn1,> 6250,–,–
1.9,3820,NC(=S)N/N=C(\c1cccc([N+](=O)[O-])c1)c1ccccn1,–,43,7
0.74,4,CNC(=S)N/N=C(\c1ccccc1)c1ccccn1,> 6250,–,–
1.92,5,S=C(N/N=C(\c1ccccc1)c1ccccn1)Nc1ccccc1,1860,–,–
–,260,NC(=S)N/N=C/c1ncccc1N [TRIAPINE],–,–,–
–,710,O=C(N/N=C/c1c(O)ccc2ccccc12)c1ccncc1,–,–,9
–,1,CN(C)C(=S)NN=C(c1ccccn1)c1ccccn1,–,–,–
